Molecules are shown by their SMILES.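 These data come from cells grown in 96-well plates and exposed to compound for 48 hours at five concentrations. GI50 marks 50% less growth.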 Calls of active or inactive are those of the source. No stated cut-off is given here; in the data, active = GI50 up to about 1.1 µM and inactive = higher.

Some test systems named below: EKVX; ACHN; MOLT-4; M14; A498; SK-MEL-5; DU-145; OVCAR-5; KM12; OVCAR-4; SF-539; SF-268; PC-3; MCF7; CCRF-CEM; HOP-62; RXF 393; NCI-H522; HL-60; K562.
Common to all, as to test: inhibition of tumour cell growth, NCI panel, 48 h

In the case of `CC(=O)OC1CN2CCC1CC2` (stereo not given) [ACECLIDINE], the GI50 with EKVX was > 100 µM (inactive); with ACHN, > 100 µM (inactive); in the experiment with MOLT-4, > 100 µM (inactive); in the experiment on M14, > 100 µM (inactive); with A498, 3.45 µM (inactive); in the experiment on SK-MEL-5 it was > 100 µM (inactive). In addition, the GI50 in the experiment on DU-145, in the experiment with OVCAR-5, in the experiment with KM12, with OVCAR-4, with SF-539 and with SF-268 was > 100 µM (inactive) throughout. Besides, the GI50 with PC-3, in the experiment on MCF7, in the experiment on CCRF-CEM, in the experiment on HOP-62, in the experiment with RXF 393 and in the experiment with NCI-H522 was > 100 µM (inactive) each time. The GI50 in the experiment on HL-60 and with K562 was > 100 µM (inactive) throughout.
For the compound `O=C(Nc1nncs1)NS(=O)(=O)n1c(=S)sc2ccccc21`, the GI50 in the experiment with EKVX was 72.6 µM (inactive); in the experiment on ACHN, > 100 µM (inactive); with MOLT-4, 42.4 µM (inactive); in the experiment on M14 it was > 100 µM (inactive); in the experiment on A498, > 100 µM (inactive); with SK-MEL-5 it was > 100 µM (inactive). For the same compound, the GI50 in the experiment on DU-145, in the experiment with OVCAR-5, in the experiment on KM12, with OVCAR-4, with SF-539 and with SF-268 was > 100 µM (inactive) each time. Also, the GI50 was > 100 µM (inactive) in the experiment with PC-3; > 100 µM (inactive) with MCF7; 24.9 µM (inactive) with CCRF-CEM; > 100 µM (inactive) with HOP-62; > 100 µM (inactive) with RXF 393; 48.1 µM (inactive) in the experiment on NCI-H522. The GI50 was 51.9 µM (inactive) in the experiment with HL-60 and > 100 µM (inactive) with K562.
For the compound `CCN(CC)CCC(=O)c1ccc(Sc2ccc(F)cc2)cc1`, the GI50 in the experiment with EKVX was 19.9 µM (inactive); with ACHN it was 18.3 µM (inactive); in the experiment on MOLT-4, 15.1 µM (inactive); in the experiment with M14, 20.5 µM (inactive); in the experiment on A498, 26.4 µM (inactive); in the experiment with SK-MEL-5, 17.1 µM (inactive). For the same compound, the GI50 in the experiment with DU-145 was 18.9 µM (inactive); in the experiment on OVCAR-5 it was 19.7 µM (inactive); in the experiment with KM12, 15.7 µM (inactive); in the experiment with OVCAR-4, 20.1 µM (inactive); in the experiment with SF-539, 17.7 µM (inactive); in the experiment on SF-268, 15.8 µM (inactive). Moreover, the GI50 with PC-3 was 17.1 µM (inactive); in the experiment on MCF7 it was 14.7 µM (inactive); with CCRF-CEM, 7.28 µM (inactive); with HOP-62 it was 18.7 µM (inactive); in the experiment with RXF 393, 17 µM (inactive); with NCI-H522, 16.1 µM (inactive). Also, the figures for the GI50 with HL-60 and in the experiment on K562 were 20.1 µM (inactive) and 52.8 µM (inactive), respectively.
Take `CC1(C)O[C@@H]2C[C@H]3[C@@H]4C[C@H](F)C5=CC(=O)C=C[C@]5(C)[C@@]4(F)[C@@H](O)C[C@]3(C)[C@]2(C(=O)CO)O1` [FLUOCINOLONE ACETONIDE]: the GI50 was > 100 µM (inactive) with EKVX; > 100 µM (inactive) in the experiment with ACHN; > 83.8 µM (inactive) with MOLT-4; > 100 µM (inactive) in the experiment with M14; > 100 µM (inactive) in the experiment on A498; > 100 µM (inactive) with SK-MEL-5. Besides, the GI50 in the experiment with DU-145 was > 100 µM (inactive); in the experiment on OVCAR-5, > 100 µM (inactive); in the experiment with KM12, > 100 µM (inactive); in the experiment with OVCAR-4, > 89.1 µM (inactive); with SF-539, > 100 µM (inactive); in the experiment on SF-268, > 100 µM (inactive). The GI50 with PC-3 was > 72.6 µM (inactive); in the experiment on MCF7 it was > 100 µM (inactive); in the experiment with CCRF-CEM, < 0.01 µM (active); in the experiment with HOP-62 it was > 100 µM (inactive); with RXF 393, > 100 µM (inactive); with NCI-H522, > 100 µM (inactive). Also, the GI50 with HL-60 and with K562 was > 100 µM (inactive) throughout.
`COc1ccc(-c2c(N)n(-c3cc(OC)cc(OC)c3)c(=O)c3cc([N+](=O)[O-])ccc23)cc1`: the GI50 with EKVX was 38.3 µM (inactive); in the experiment with ACHN, > 100 µM (inactive); with MOLT-4, > 60.7 µM (inactive); with M14 it was 32.4 µM (inactive); in the experiment with A498 it was 28 µM (inactive); with SK-MEL-5 it was 18 µM (inactive). In addition, the GI50 was > 100 µM (inactive) with DU-145; > 100 µM (inactive) in the experiment on OVCAR-5; > 54.5 µM (inactive) with KM12; 18.2 µM (inactive) in the experiment on OVCAR-4; > 78.3 µM (inactive) with SF-539; 29.4 µM (inactive) with SF-268. The GI50 with PC-3 was 31.3 µM (inactive); in the experiment on MCF7, 29.3 µM (inactive); in the experiment with CCRF-CEM it was > 77.8 µM (inactive); in the experiment on HOP-62, > 100 µM (inactive); in the experiment on RXF 393, 11.1 µM (inactive); in the experiment on NCI-H522, 5.19 µM (inactive). In addition, the GI50 was 2.47 µM (inactive) with HL-60 and 23.8 µM (inactive) in the experiment with K562.
Take `Cc1ccnc2nc(-c3cccc4ccccc34)cc(O)c12`: the GI50 in the experiment with EKVX is 0.0272 µM (active); in the experiment on ACHN it was 0.0248 µM (active); in the experiment with MOLT-4, 0.00989 µM (active); with M14, 0.00938 µM (active); in the experiment with A498, 0.00167 µM (active); in the experiment with SK-MEL-5, 0.000991 µM (active). Moreover, the GI50 in the experiment with DU-145 is 0.035 µM (active); in the experiment on OVCAR-5, 0.0516 µM (active); in the experiment on KM12, 0.0183 µM (active); with OVCAR-4, 0.115 µM (active); in the experiment on SF-539 it was 0.0112 µM (active); in the experiment with SF-268 it was 0.00867 µM (active). Also, the GI50 in the experiment on PC-3 was 0.0113 µM (active); in the experiment on MCF7, 0.0304 µM (active); in the experiment on CCRF-CEM, 0.00527 µM (active); in the experiment on HOP-62, 0.537 µM (active); in the experiment on RXF 393 it was 0.0879 µM (active); with NCI-H522 it was 0.00106 µM (active). Moreover, the figures for the GI50 in the experiment with HL-60 and in the experiment on K562 were 0.000487 µM (active) and 0.000483 µM (active), respectively.
On to `CCO/C=N/C1=C(C#N)SC2=N/C(=C\c3ccccc3)C(=O)N21`, for which the GI50 was 77.3 µM (inactive) in the experiment on EKVX; > 100 µM (inactive) with ACHN; 31.7 µM (inactive) in the experiment on MOLT-4; > 100 µM (inactive) in the experiment on M14; > 85.1 µM (inactive) with A498; > 100 µM (inactive) with SK-MEL-5. Further, the GI50 was > 100 µM (inactive) in the experiment on DU-145; > 100 µM (inactive) in the experiment on OVCAR-5; > 100 µM (inactive) with KM12; 57.9 µM (inactive) in the experiment with OVCAR-4; > 100 µM (inactive) in the experiment on SF-539; > 100 µM (inactive) with SF-268. Besides, the GI50 in the experiment with PC-3 was > 100 µM (inactive); in the experiment on MCF7 it was > 100 µM (inactive); in the experiment with CCRF-CEM it was 60.5 µM (inactive); in the experiment with HOP-62, > 100 µM (inactive); in the experiment on RXF 393, > 100 µM (inactive); in the experiment on NCI-H522 it was > 100 µM (inactive). For the same compound, the results for the GI50 with HL-60 and with K562 were 23.9 µM (inactive) and 41.9 µM (inactive), respectively.
As for `c1cc2c(cc1[C@@H]1OC[C@@H]3[C@H]1CO[C@H]3c1ccc3c(c1)OCO3)OCO2`, the GI50 was 29.7 µM (inactive) in the experiment with EKVX; > 100 µM (inactive) in the experiment on ACHN; 28.4 µM (inactive) in the experiment on MOLT-4; 62.8 µM (inactive) with M14; > 100 µM (inactive) in the experiment with A498; 16 µM (inactive) with SK-MEL-5. For the same compound, the GI50 in the experiment on DU-145 was > 100 µM (inactive); in the experiment on OVCAR-5, > 100 µM (inactive); in the experiment with KM12, 23.1 µM (inactive); with OVCAR-4, > 100 µM (inactive); in the experiment on SF-539, > 100 µM (inactive); in the experiment with SF-268, > 100 µM (inactive). In addition, the GI50 in the experiment on PC-3 was 51.4 µM (inactive); in the experiment with MCF7, 34.9 µM (inactive); in the experiment with CCRF-CEM, 44.8 µM (inactive); with HOP-62 it was > 100 µM (inactive); in the experiment with RXF 393, 20.8 µM (inactive); in the experiment on NCI-H522, > 100 µM (inactive). Besides, the GI50 in the experiment on HL-60 was 44 µM (inactive); with K562, 46.8 µM (inactive).
As for `O=S1(=O)c2cnccc2N=C(NCc2ccccc2)N1c1ccccc1`, the GI50 with EKVX is > 100 µM (inactive); in the experiment with ACHN, 36.7 µM (inactive); in the experiment with MOLT-4 it was 34.9 µM (inactive); in the experiment on M14, > 100 µM (inactive); in the experiment with A498, > 100 µM (inactive); in the experiment on SK-MEL-5 it was 55.5 µM (inactive). In addition, the GI50 was 67.1 µM (inactive) in the experiment with DU-145; > 100 µM (inactive) in the experiment with OVCAR-5; > 100 µM (inactive) in the experiment with KM12; > 100 µM (inactive) with OVCAR-4; > 100 µM (inactive) in the experiment on SF-539; > 100 µM (inactive) with SF-268. Further, the GI50 in the experiment on PC-3 was 75.3 µM (inactive); in the experiment with MCF7, 54.5 µM (inactive); in the experiment on CCRF-CEM it was 41 µM (inactive); with HOP-62 it was > 100 µM (inactive); in the experiment on RXF 393 it was > 100 µM (inactive); in the experiment with NCI-H522 it was 42.1 µM (inactive). Besides, the GI50 in the experiment on HL-60 is 41.4 µM (inactive); with K562, > 100 µM (inactive).
On to `CCOC(=O)CC1Nc2ccccc2C12CCc1c([nH]c3ccccc13)C2C(=O)OCC` (stereo not given), for which the GI50 in the experiment on EKVX is 16.2 µM (inactive); in the experiment with ACHN it was 28.6 µM (inactive); in the experiment with MOLT-4, 6.1 µM (inactive); with M14, 30.5 µM (inactive); in the experiment with A498, 9.42 µM (inactive); in the experiment on SK-MEL-5, 14.8 µM (inactive). Besides, the GI50 in the experiment with DU-145 was > 100 µM (inactive); with OVCAR-5 it was > 100 µM (inactive); with KM12, 14.8 µM (inactive); with OVCAR-4, 12.3 µM (inactive); in the experiment with SF-539 it was 88.1 µM (inactive); in the experiment with SF-268, 51.4 µM (inactive). For the same compound, the GI50 was 53.2 µM (inactive) in the experiment with PC-3; 13.1 µM (inactive) in the experiment on MCF7; 0.359 µM (active) in the experiment on CCRF-CEM; > 100 µM (inactive) in the experiment on HOP-62; 5.79 µM (inactive) in the experiment with RXF 393; 7.13 µM (inactive) in the experiment on NCI-H522. Moreover, the values for the GI50 in the experiment with HL-60 and in the experiment on K562 were 14.7 µM (inactive) and 34 µM (inactive), respectively.

For the origin of these results see ChEMBL document CHEMBL1201862, “PubChem BioAssay data set” (2004).
